According to patent publication US20110212933A1, “Antiseptic Compositions for the Treatment of Infections” (priority 2008, published 2011):
“And” between values parts separate entries of the source, which are not always exact repeats. Equal values may be shown once. Read-outs that look alike come from different tables or passages of the source.

Assays:
[1] = test system: guinea pigs; details: 0.4 mL, historical data, cited from earlier work
[2] = test system: guinea pigs; details: Positive Control animals, historical data, cited from earlier work; for Individual Bodyweight Initial: baseline
[3] = test system: guinea pigs; test: Dermal sensitization test in guinea pigs (Buehler)
[4] = test system: T. mentagrophytes
Description: Phenol Resistance Control: The phenol resistance of Trichophyton mentagrophytes was determined per the AOAC method. Final phenol dilutions were made the day of use from stock phenol within manufacturer's stability specification.

[5] = test system: P. aeruginosa
Description: (§1) Phenol Resistance Control: The phenol resistance of the test organisms were determined per the AOAC method.
(§2) Final phenol dilutions were made the day of use from stock phenol within manufacturer's stability specification.

[6] = test system: S. aureus
Description: as §1, §2

[7] = test system: S. cholerasuis
Description: as §1, §2

[8] = historical positive naive control animals, 0.04% in acetone
[9] = Dilution 1:60, Exposure Time 5 Minutes
[10] = Dilution 1:60, Exposure Time 10 Minutes
[11] = Dilution 1:70, Exposure Time 5 Minutes
[12] = Dilution 1:70, Exposure Time 10 Minutes
[13] = Dilution 1:90, Exposure Time 5 Minutes
[14] = Dilution 1:90, Exposure Time 10 Minutes
[15] = Dilution 1:90, Exposure Time 15 Minutes

O=[N+]([O-])c1ccc(Cl)c([N+](=O)[O-])c1 [DNCB, 1-Chloro-2,4-Dinitrobenzene]
Preliminary Irritation Testing Score ([1]; Concentration 0.02% w/w in acetone): 0 | Preliminary Irritation Testing Score ([1]; Concentration 0.03% w/w in acetone): 0 and 0.5 | Preliminary Irritation Testing Score ([1]; Concentration 0.04% w/w in acetone): 0 and 0.5 | Individual Bodyweight Initial ([2]; female guinea pigs): 393 g and 404 g and 415 g and 411 g and 408 g and 428 g and 372 g | Individual Bodyweight Initial ([2]; male guinea pigs): 406 g (2×) and 379 g and 413 g and 423 g and 408 g and 386 g and 407 g | Individual Bodyweight Day After Challenge ([2]; female guinea pigs): 568 g and 660 g and 581 g and 536 g and 591 g and 544 g and 609 g | Individual Bodyweight Day After Challenge ([2]; male guinea pigs): 579 g and 544 g and 600 g and 618 g and 668 g and 551 g and 639 g and 599 g | erythema score, induction phase ([3]; historical positive control animals, 0.08% in 80% aqueous ethanol): 0.5-3 | sites with very faint erythema (0.5) 24 hours after challenge [3, 8]: two | time for irritation to clear from affected sites [3, 8]: ≤ 48 h

Oc1ccccc1 [Phenol, phenol]
Phenol Resistance, growth in subculture [4, 9]: 0 | Phenol Resistance, growth in subculture [4, 10]: 0 | Phenol Resistance, growth in subculture [4, 11]: + | Phenol Resistance, growth in subculture [4, 12]: + | Phenol Resistance, growth in subculture ([5]; Dilution 1:80, Exposure Time 5 Minutes): 0 | Phenol Resistance, growth in subculture ([5]; Dilution 1:80, Exposure Time 10 Minutes): 0 | Phenol Resistance, growth in subculture ([5]; Dilution 1:80, Exposure Time 15 Minutes): 0 | Phenol Resistance, growth in subculture [5, 13]: + | Phenol Resistance, growth in subculture [5, 14]: + | Phenol Resistance, growth in subculture [5, 15]: + | Phenol Resistance, growth in subculture [6, 9]: + | Phenol Resistance, growth in subculture [6, 10]: + | Phenol Resistance, growth in subculture ([6]; Dilution 1:60, Exposure Time 15 Minutes): 0 | Phenol Resistance, growth in subculture [6, 11]: + | Phenol Resistance, growth in subculture [6, 12]: + | Phenol Resistance, growth in subculture ([6]; Dilution 1:70, Exposure Time 15 Minutes): + | Phenol Resistance, growth in subculture [7, 13]: + | Phenol Resistance, growth in subculture [7, 14]: 0 | Phenol Resistance, growth in subculture [7, 15]: 0 | Phenol Resistance, growth in subculture ([7]; Dilution 1:100, Exposure Time 5 Minutes): + | Phenol Resistance, growth in subculture ([7]; Dilution 1:100, Exposure Time 10 Minutes): + | Phenol Resistance, growth in subculture ([7]; Dilution 1:100, Exposure Time 15 Minutes): 0
